# Tested on: phospho-SMAD1/5/8 and ID1 in HSJD-DIPG-007 xenograft tumours
# Assay: Pharmacodynamic biomarkers by Western blot in orthotopic HSJD-DIPG-007 xenograft tumours
# Assay type: in vivo, NOD.SCID mice
# Settings: daily oral administration, end of 28 days
# Description: Fig. 5 In vivo pharmacokinetics/pharmacodynamics of LDN-193189 (top) and LDN-214117 (bottom). a, e Tolerability in NOD.SCID mice exposed to daily oral treatment with inhibitor over 14 days, as assessed by body weight relative to day 0. Mean and standard deviation of 3 mice per group are plotted. b, f Blood levels of compounds up to 8 h post-exposure to a single oral dose of drug at day 14. Mean and standard deviation of 3 mice per group are plotted. c, g Barplot of compound concentrations in blood (red), plasma (yellow) and brain tissue (blue) 2 h post-exposure to a single oral dose of drug at day 14. […]
# For growth factor starvation, cells were washed twice with PBS and then incubated for 1 h in stem cell medium without growth factors. […] Following quantification using Pierce BCA Protein Assay Kit (Thermo Fisher), equal amounts of cell extracts were loaded for Western blot analysis. […] Signal was detected with ECL Prime western blotting detection agent (Amersham Biosciences), visualised using Hyperfilm ECL (Amersham Biosciences) and analysed using an X-ray film processor in accordance with standard protocols. […]
compound,measurement,value
c1ccc2c(-c3cnn4cc(-c5ccc(N6CCNCC6)cc5)cnc34)ccnc2c1 [LDN-193189],reduction in pharmacodynamic biomarkers phospho-SMAD1/5/8 and ID1 in tumours,near-ablation of phospho-SMAD1/5/8 and ID1
